US20070225278A1, “Methods for treating cognitive and other disorders” (priority 2006, published 2007)

Key:
[1] = Antidepressant-like effects (MED), Table 2; assay type: in vivo; settings: minimal effective dose
From the text: Table 2, below, summarizes the dose at which antidepressant-like effects are observed, the dose at which sexual dysfunction occurs, and the therapeutic window.

[2] = test system: male Sprague Dawley CD rats; assay: Reversal of MK-801 induced deficits in PPI; settings: 3-30 mg/kg IP, MK-801 0.15 mg/kg SC
[3] = test system: extracellular glutamate levels in the rat mPFC; assay: In vivo microdialysis, glutamate in medial prefrontal cortex; settings: 17 mg/kg s.c., acute
Experimental: (§1) Animals: Adult male Sprague-Dawley rats (Charles River, Wilmington, Mass.) weighing 280-350 g at the time of surgery were used for all microdialysis experiments. Adult male Long-Evans rats (Charles River, Wilmington, Mass.) weighing 180-220 g were used for NOR studies. Rats were housed individually for recognition memory studies. All animals had free access to food and water and were group housed in the AAALAC-accredited facility that was maintained on a 12 h light dark cycle (lights on at 0600 h) for at least 1 week prior to surgery or behavioral testing. All in vivo studies were performed in accordance to the ‘Guide for the Care and Use of Laboratory Animals’ as adopted and promulgated by the National Institutes of Health (Pub. 85-23, 1985).
Stereotaxic Surgery Following induction of anesthesia with 3% halothane (Fluothane; Zeneca, Cheshire, UK), animals were secured in a stereotaxic frame with ear and incisor bars (David Kopf, Tujunga, Calif.). Anesthesia was maintained by continuous administration of halothane (1-2%) while a microdialysis guide cannula (CMA/12, CMA Microdialysis, Stockholm, Sweden) was implanted above the medial prefrontal cortex (AP: 3.2 mm ML: −0.6 mm DV: −3.8 mm). […]
Dialysate (10 μL) f was collected and analyzed for extracellular glutamate concentrations. […]

[4] = test system: male Long-Evans rats; assay: Novel object recognition (NOR); assay type: in vivo, rat
Experimental: as §1, with “All in vivo studies were performed in accordance to the ‘Guide for the Care and Use of Laboratory Animals’ as adopted and promulgated by the National Institutes of Health (Pub. 85-23, 1985).” left out
Novel object recognition (NOR) training and testing was performed in a circular field (diameter ˜70 cm, 30 cm high) constructed out of plastic and containing bedding. […] Animal performance was tracked by video and monitored by an experimenter located outside of the testing room. […]
The visual recognition task was divided into 3 sessions—habituation, a sample trial and a choice trial. […] The amount of time exploring the objects was recorded for the entire trial. […]
The effect of treatment on object exploration during the sample trial was examined using a one-way ANOVA on total contact time followed by Fisher's LSD group mean pairwise comparisons. The amount of time exploring the novel and familiar objects across treatment groups was analyzed using a repeated measures ANOVA followed by Fisher's LSD post hoc comparisons. […]

[5] = test system: male Sprague Dawley CD rats; assay: Baseline PPI, compound administered alone; assay type: in vivo, rat; settings: dose range that attenuates d-amphetamine and DOI deficits
From the text: Inter-trial intervals averaged 15 s.

Structure (SMILES): c1cc2c3c(c1)[C@H]1CCC[C@H]1N3CCNC2 [Compound 1]
- Antidepressant-like effects (MED mg/kg) [1]: 0.3 mg/kg
- reduction of the increase in startle produced by MK-801 ([2]; all doses tested): did significantly reduce
- attenuation of MK-801 induced disruption in gating (PPI) ([2]; any dose tested): did not show an ability to significantly attenuate
- glutamate levels compared to vehicle-treated animals [3]: 210%
- effect on exploration during the sample trial ([4]; 1 mg/kg orally): No significant effect
- exploration of novel vs familiar object in choice trial (retention) ([4]; 1 mg/kg orally 60 minutes prior to sample trial, 48 hour retention interval): significantly greater time spent exploring the novel than the familiar object
- effect on baseline PPI when administered alone [5]: no effect
